Test results reported in patent EP1267826B1, “PHARMACEUTICAL COMPOSITION FOR TREATMENT OF MUCOSAL EPITHELIAL ULCERATION AND/OR EROSION” (LIF-HLAUP EHF. BIO-GELS PHARMACEUTICALS INC., priority 1999, dated 2001).
“And” between values parts separate entries of the source, which are not always exact repeats. Equal entries are not always repeated.

Assays:
MMP's = conditions: literature (Burns et al. 1989; Gabler et al. 1991); cited from earlier work
MMP-2 = biological target: T1, MMP-2 (Homo sapiens, UniProt P08253); test: Zymography, inhibition of gelatinolytic activity; assay type: biochemical; conditions: MMP-2 acquired from HT-1080; result determined visually; read-out: concentration at which complete inhibition was achieved
T1 construct: known to secrete a large amount of several matrix-degrading enzymes, among which are MMP-2 and MMP-9; endogenous in cells; host or cells: HT-1080 human fibrosarcoma cells (secreted enzyme)
T1 sequence (P08253 110-660): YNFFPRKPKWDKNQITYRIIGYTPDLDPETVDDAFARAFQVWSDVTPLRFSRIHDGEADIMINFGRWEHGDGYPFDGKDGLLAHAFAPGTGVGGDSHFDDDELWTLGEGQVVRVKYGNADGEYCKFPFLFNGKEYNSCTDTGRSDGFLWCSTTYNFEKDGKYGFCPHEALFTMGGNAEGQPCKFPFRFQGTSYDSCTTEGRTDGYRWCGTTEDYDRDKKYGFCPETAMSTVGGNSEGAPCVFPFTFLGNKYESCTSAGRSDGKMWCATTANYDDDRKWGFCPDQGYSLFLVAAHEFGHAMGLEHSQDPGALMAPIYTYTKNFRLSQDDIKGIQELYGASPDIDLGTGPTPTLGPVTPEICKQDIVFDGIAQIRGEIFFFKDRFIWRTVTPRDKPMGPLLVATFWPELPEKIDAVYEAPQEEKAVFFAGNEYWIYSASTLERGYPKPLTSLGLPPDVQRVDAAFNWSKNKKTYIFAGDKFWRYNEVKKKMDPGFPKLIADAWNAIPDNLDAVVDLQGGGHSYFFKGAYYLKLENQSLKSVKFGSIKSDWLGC
Source text: (§1) In checking the inhibition of the doxycycline on MMP's a Zymography method was used (Mackay et al., Cancer Res., 50(18), 5997-6001, 1990).
(§2) Cell culture: HT-1080 is human fibrosarcoma cell line which is known to secrete a large amount of several matrix-degrading enzymes, among which are MMP-2 and MMP-9 (Kawamata et al., International Journal of Oncology, 13, 699-704, 1998).

MMP-9 = biological target: T2, MMP-9 (Homo sapiens, UniProt P14780); test: Zymography, inhibition of gelatinolytic activity; assay type: biochemical; conditions: MMP-9 acquired from HT-1080; result determined visually; read-out: concentration at which complete inhibition was achieved
T2 construct: known to secrete a large amount of several matrix-degrading enzymes, among which are MMP-2 and MMP-9; endogenous in cells; host or cells: HT-1080 human fibrosarcoma cells (secreted enzyme)
Source text: as §1, §2

T2 sequence (P14780 94-707): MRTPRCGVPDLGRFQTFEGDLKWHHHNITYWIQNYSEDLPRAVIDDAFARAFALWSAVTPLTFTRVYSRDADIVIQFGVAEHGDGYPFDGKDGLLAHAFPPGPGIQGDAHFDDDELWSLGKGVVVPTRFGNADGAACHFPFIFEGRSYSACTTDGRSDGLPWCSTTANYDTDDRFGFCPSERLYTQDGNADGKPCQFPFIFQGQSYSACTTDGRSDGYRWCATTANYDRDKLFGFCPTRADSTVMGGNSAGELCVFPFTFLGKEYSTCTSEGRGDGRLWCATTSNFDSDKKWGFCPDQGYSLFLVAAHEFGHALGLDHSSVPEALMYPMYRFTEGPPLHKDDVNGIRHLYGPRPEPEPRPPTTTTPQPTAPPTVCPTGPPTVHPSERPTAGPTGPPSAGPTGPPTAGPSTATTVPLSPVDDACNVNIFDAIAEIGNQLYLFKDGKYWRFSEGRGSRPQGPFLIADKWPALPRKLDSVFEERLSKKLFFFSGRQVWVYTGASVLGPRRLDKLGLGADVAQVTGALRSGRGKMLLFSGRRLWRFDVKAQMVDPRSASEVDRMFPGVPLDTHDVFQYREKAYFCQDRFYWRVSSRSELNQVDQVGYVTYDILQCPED

| IC100 (MMP-2) | IC100 (MMP-9) | Compound | inhibition of the MMP's (in words) (MMP's) |
| --- | --- | --- | --- |
|  |  | O=C(O)CN(CCN(CC(=O)O)CC(=O)O)CC(=O)O [EDTA] | have shown inhibition of MMP's |
|  |  | CCN(CC)CCCCCCCCOC(=O)c1cc(OC)c(OC)c(OC)c1 [TMB-8] | have shown inhibition of MMP's |
| 100 µM and 48 µg/mL | 50 µM and 24 µg/mL | C[C@H]1c2cccc(O)c2C(=O)C2=C(O)[C@]3(O)C(=O)C(C(N)=O)=C(O)[C@@H](N(C)C)[C@@H]3[C@@H](O)[C@@H]21 [doxycycline] |  |
